One may read the IC50 as the midpoint of a concentration-inhibition curve.

SMILES strings stand for the structures.

Results on twelve molecules are retold here after ChEMBL document CHEMBL1240493, “Homology modeling and atomic level binding study of GABA(A) receptor with novel enaminone amides” (Eur J Med Chem, 2010).

GABA-A receptor; alpha-1/beta-2/gamma-2, sequence (P18508 whole entry): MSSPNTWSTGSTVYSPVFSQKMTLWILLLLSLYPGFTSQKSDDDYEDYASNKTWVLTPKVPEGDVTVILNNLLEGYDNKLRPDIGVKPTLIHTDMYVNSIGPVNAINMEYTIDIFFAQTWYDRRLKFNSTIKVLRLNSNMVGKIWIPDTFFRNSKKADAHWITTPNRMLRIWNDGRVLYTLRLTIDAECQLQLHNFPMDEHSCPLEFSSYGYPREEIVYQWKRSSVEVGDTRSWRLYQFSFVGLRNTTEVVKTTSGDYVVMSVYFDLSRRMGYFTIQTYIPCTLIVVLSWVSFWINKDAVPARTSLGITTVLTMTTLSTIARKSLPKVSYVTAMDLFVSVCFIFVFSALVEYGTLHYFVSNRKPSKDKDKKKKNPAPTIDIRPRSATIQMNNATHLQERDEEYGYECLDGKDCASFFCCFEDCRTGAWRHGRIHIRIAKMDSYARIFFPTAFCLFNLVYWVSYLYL
GABA-A receptor; alpha-1/beta-2/gamma-2, sequence (P62813 whole entry): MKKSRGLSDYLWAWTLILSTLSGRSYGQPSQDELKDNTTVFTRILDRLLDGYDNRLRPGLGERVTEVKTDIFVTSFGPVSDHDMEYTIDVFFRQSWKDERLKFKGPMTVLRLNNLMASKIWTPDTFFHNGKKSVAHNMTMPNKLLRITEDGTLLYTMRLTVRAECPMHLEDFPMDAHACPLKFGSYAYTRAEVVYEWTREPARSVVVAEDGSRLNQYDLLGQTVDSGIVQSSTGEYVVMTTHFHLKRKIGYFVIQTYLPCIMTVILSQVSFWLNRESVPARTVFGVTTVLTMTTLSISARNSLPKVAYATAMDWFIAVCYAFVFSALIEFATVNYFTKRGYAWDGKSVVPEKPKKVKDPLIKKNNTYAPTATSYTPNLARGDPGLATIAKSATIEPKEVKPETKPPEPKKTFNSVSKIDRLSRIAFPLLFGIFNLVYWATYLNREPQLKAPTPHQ
GABA-A receptor; alpha-1/beta-2/gamma-2, sequence (P63138 whole entry): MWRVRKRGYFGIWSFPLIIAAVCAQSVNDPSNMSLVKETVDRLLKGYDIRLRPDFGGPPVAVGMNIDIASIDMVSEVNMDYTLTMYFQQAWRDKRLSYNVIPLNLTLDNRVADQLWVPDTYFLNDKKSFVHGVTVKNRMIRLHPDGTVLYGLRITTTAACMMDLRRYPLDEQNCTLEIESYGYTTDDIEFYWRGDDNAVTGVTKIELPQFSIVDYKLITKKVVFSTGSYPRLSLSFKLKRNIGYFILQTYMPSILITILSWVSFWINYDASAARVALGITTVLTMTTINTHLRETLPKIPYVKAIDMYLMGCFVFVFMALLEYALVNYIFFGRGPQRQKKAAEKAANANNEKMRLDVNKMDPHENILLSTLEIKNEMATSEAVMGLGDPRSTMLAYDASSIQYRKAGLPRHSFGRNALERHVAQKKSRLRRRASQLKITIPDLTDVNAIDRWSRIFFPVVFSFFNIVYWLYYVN

The assay addresses GABA-A receptor; alpha-1/beta-2/gamma-2 (Rattus norvegicus, UniProt P18508+P62813+P63138). The assay can be described thus: Inhibition of rat GABA alpha-1-beta-2-gamma-2 receptor. It is filed as protein-complex assay.
In turn, `NC(=O)/C(=C\Nc1ccc(Cl)cc1)C(=O)c1ccccc1Cl` showed an IC50 of 1.7 µM. For `CNC(=O)/C(=C\Nc1ccc(Cl)cc1)C(=O)c1ccccc1Cl`, the IC50 was 0.158 µM. `CCC(CC)NC(=O)/C(=C\Nc1ccc(Cl)cc1)C(=O)c1ccccc1Cl` had an IC50 of 0.0794 µM.

In the case of `CCNC(=O)/C(=C\Nc1ccc(Cl)cc1)C(=O)c1ccccc1Cl`, the IC50 is 0.0501 µM.

In turn, `CC(C)NC(=O)/C(=C\Nc1ccc(Cl)cc1)C(=O)c1ccccc1Cl` gave an IC50 of 0.0398 µM.

Molecule `O=C(NC1CC1)/C(=C\Nc1ccc(Cl)cc1)C(=O)c1ccccc1Cl` had an IC50 of 0.0302 µM. The IC50 values of the last two molecules are within 1.5-fold of each other. `O=C(NC1CCCC1)/C(=C\Nc1ccc(Cl)cc1)C(=O)c1ccccc1Cl` showed an IC50 of 0.0302 µM. On to `CC(C)(C)NC(=O)/C(=C\Nc1ccc(Cl)cc1)C(=O)c1ccccc1Cl`, for which it took 3.02 µM to reach half-maximal inhibition (IC50). The molecule `CC(C)C(C)NC(=O)/C(=C\Nc1ccc(Cl)cc1)C(=O)c1ccccc1Cl` (configuration not stated) had an IC50 of 0.398 µM.

`CCC(C)NC(=O)/C(=C\Nc1ccc(Cl)cc1)C(=O)c1ccccc1Cl` (configuration not stated) gave an IC50 of 0.02 µM. Take `O=C(NC1CCC1)/C(=C\Nc1ccc(Cl)cc1)C(=O)c1ccccc1Cl`: the IC50 was 0.00708 µM.

`CCCNC(=O)/C(=C\Nc1ccc(Cl)cc1)C(=O)c1ccccc1Cl` gave an IC50 of 0.0447 µM.
